The series in a line: Clinical trials, longer-term ximelagatran treatment: ALAT elevation in patients. The format is in vivo, human. An excerpt: Alanine aminotransferase (ALAT) is an enzyme mostly expressed in the liver (EC 2.6.1.2). It is also called serum glutamate pyruvate transaminase (SGPT) or alanine transaminase (ALT). This enzyme is release into the plasma by liver cell death, which is a normal event. However, when liver cell death increases, ALAT levels rise above the normal range. The spillover of this enzyme into blood is routinely measured as a marker of abnormal liver-cell damage. For example, alcoholic or viral hepatitis will increase ALAT levels, as will severe congestive heart failure. ALAT is also markedly raised in hepatitis and other acute liver damage. An elevated ALAT in the presence of normal levels of plasma alkaline phosphatase helps distinguish liver disease caused by liver-cell damage from diseases caused by problems in biliary ducts. Elevations of ALAT are normally measured in multiples of the upper limit of normal (ULN), with a reference range of 15-45 U/L in most laboratories. In 1987, in a study of 19,877 healthy Air Force recruits, only 99 (0.5%) had confirmed ALAT elevations (as reviewed in Green & Flamm (2002) Gastroenterology 123:1367-1384).
Subject to the future regulatory approval of ximelagatran, regular liver function testing (LFT) using an appropriate algorithm may be required if ximelagatran is used for treatment periods exceeding a month. Studies are currently ongoing to try and establish the mechanism of the ALAT elevations, and their hepatic and overall clinical significance.

Bounds are passed on as bounds.

For `CCOC(=O)CN[C@@H](C(=O)N1CC[C@H]1C(=O)NCc1ccc(/C(N)=N\O)cc1)C1CCCCC1` [ximelagatran, EtOOC—CH2—(R)Cgl-Aze-Pab-OH], where the note is “longer-term treatment”, the “symptoms accompanying ALAT increases” value is “mainly asymptomatic”. Besides, the “patients exhibiting levels of alanine aminotransferase (ALAT) 3-fold or more above the upper limit of normal (≧3×ULN)” value (longer-term treatment (>35 days), 1.2% in the comparator groups) is on record as 7.9%. Also, the “reversibility of ALAT increases” value (regardless of whether treatment was continued or discontinued) was “reversible in most patients”. For the same compound, for the setting “usually, from start of treatment”, the “time of occurrence of the increase in ALAT values” was not above 6 months.

These data come from patent US20090227559A1, “SNPS IN THE APOB GENE AND SUSCEPTIBILITY TO INCREASED LEVELS OF ALAT FOLLOWING XIMELAGATRAN ADMINISTRATION” (AstraZeneca AB, priority 2005, published 2009).
